How the values were obtained:
Fusarium graminearum = assay: microbe, parasite or virus in culture; assay type: cell-based; conditions: F.g sensitive strains
Fusarium asiaticum = assay: microbe, parasite or virus in culture; assay type: cell-based; conditions: F.a sensitive strains

For `CCOC(=O)C(C#N)=C(N)c1ccccc1` [phenamacril], the “Median Effective Concentration (EC50) for Growth Inhibition” value (Fusarium graminearum) was 0.165 µg/mL and the “Median Effective Concentration (EC50) for Growth Inhibition” value (Fusarium asiaticum) was 0.165 µg/mL.

Reference: patent publication US10588316B2 (priority 2015, dated 2020)
